Among the test systems are SNB-75 CNS; SN12C renal; HCT-15 colon; NCI-H226 lung; COLO 205 colon; SK-MEL-2 melanoma; NCI-H460 lung; BT-549 breast; ACHN renal; IGROV1 ovarian.
Holding throughout (test): NCI tumour cell line growth inhibition, 48 h

Molecules are shown by their SMILES.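 Following 48 hours of exposure in 96-well plates, responses at five concentrations were used to interpolate endpoints linearly. GI50 marks 50% less growth. Definition used: TGI = concentration required for complete inhibition of growth.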

As for `O=C1C(=O)c2ccccc2C(O)=C1C(C1=C(O)c2ccccc2C(=O)C1=O)c1ccc(Cl)cc1`, the TGI in the assay on SNB-75 CNS turned out to be 9.83 µM; in the assay on SN12C renal, 3.66 µM; in the assay with HCT-15 colon, 32 µM; with NCI-H226 lung, 52.9 µM; with COLO 205 colon, 35.6 µM; in the assay on SK-MEL-2 melanoma it was 24.1 µM. Further, the TGI with NCI-H460 lung stood at 28.9 µM; in the assay with BT-549 breast it was 32.7 µM; in the assay on ACHN renal it was 17 µM; with IGROV1 ovarian it was 27.2 µM.

For the molecule `CC1(C)N=C(N)N=C(N)N1c1ccc(CCC(=O)Nc2ccc(S(=O)(=O)F)cc2)c(Cl)c1`, the GI50 was 9.75 µM with SNB-75 CNS; 0.487 µM in the assay on SN12C renal; 2.92 µM in the assay on HCT-15 colon; 14.4 µM with NCI-H226 lung; 2.52 µM with COLO 205 colon; 36.1 µM in the assay on SK-MEL-2 melanoma. In addition, the GI50 was 0.0716 µM with NCI-H460 lung, 0.995 µM in the assay with BT-549 breast, 5.37 µM in the assay with ACHN renal and 0.0551 µM in the assay with IGROV1 ovarian. For the same molecule, the TGI with SNB-75 CNS, in the assay on SN12C renal, in the assay on HCT-15 colon, in the assay on NCI-H226 lung, in the assay on COLO 205 colon and with SK-MEL-2 melanoma was above 100 µM throughout. The TGI with NCI-H460 lung is above 100 µM; in the assay with BT-549 breast, above 100 µM; in the assay with ACHN renal, above 100 µM; in the assay with IGROV1 ovarian, above 86.5 µM.

In the case of `CCOc1cccc(/C=N/NC(=O)c2cccc(Nc3ccnc(C(F)(F)F)c3)c2)c1O`, the GI50 was 11.2 µM in the assay with SNB-75 CNS; 1.66 µM in the assay on SN12C renal; 1.1 µM with HCT-15 colon; 0.827 µM with NCI-H226 lung; 0.532 µM in the assay on COLO 205 colon; 8.5 µM in the assay on SK-MEL-2 melanoma. The GI50 with NCI-H460 lung is 1.17 µM; in the assay on BT-549 breast it was 1.44 µM; with ACHN renal, 0.699 µM; in the assay with IGROV1 ovarian, 0.852 µM. For the same molecule, the TGI is 39.2 µM in the assay on SNB-75 CNS; above 70.7 µM with SN12C renal; above 100 µM in the assay on HCT-15 colon; 9.82 µM with NCI-H226 lung; 18.4 µM with COLO 205 colon; 39.9 µM in the assay with SK-MEL-2 melanoma. Moreover, the TGI with NCI-H460 lung was 9.53 µM; with BT-549 breast it was 36.5 µM; in the assay with ACHN renal, above 50.3 µM; in the assay on IGROV1 ovarian, above 52.6 µM.

Consider `CC/C=C\C[C@H]1CC=C2C(=O)C=C[C@@H]2CC=CCCCC(=O)O[C@@H](CCCCC)CC=C2C(=O)C=C[C@@H]2CC=CCCCC(=O)O[C@@H](CCCCC)CC=C2C(=O)C=C[C@@H]2CC=CCCCC(=O)O[C@@H](CCCCC)CC=C2C(=O)C=C[C@@H]2CC=CCCCC(=O)O1`, for which the GI50 is 3.8 µM with SNB-75 CNS; 1.99 µM with SN12C renal; 2.84 µM in the assay on HCT-15 colon; 2.48 µM in the assay with NCI-H226 lung; 1.64 µM with COLO 205 colon; 2.21 µM in the assay with SK-MEL-2 melanoma. For the same molecule, the GI50 in the assay with NCI-H460 lung was 2.45 µM; with BT-549 breast, 1.78 µM; with ACHN renal it was 2.62 µM; in the assay with IGROV1 ovarian, 2.32 µM. In addition, the TGI is above 7.9 µM in the assay with SNB-75 CNS; 6.86 µM in the assay on SN12C renal; above 7.9 µM in the assay on HCT-15 colon; above 7.9 µM in the assay on NCI-H226 lung; 3.6 µM in the assay with COLO 205 colon; 5.38 µM in the assay on SK-MEL-2 melanoma. The TGI in the assay with NCI-H460 lung was above 7.9 µM; in the assay with BT-549 breast, 5.21 µM; with ACHN renal it was above 7.9 µM; with IGROV1 ovarian, 7.81 µM.

Consider `Cc1cc(Cl)ccc1OCC(=O)Nc1nc2c(Cl)cccc2s1`, for which the GI50 with SNB-75 CNS was 23.7 µM; in the assay on SN12C renal it was 39.2 µM; in the assay with HCT-15 colon, 6.49 µM; with NCI-H226 lung, 53.3 µM; in the assay with COLO 205 colon it was above 100 µM; in the assay on SK-MEL-2 melanoma, above 100 µM. The GI50 with BT-549 breast is above 100 µM; with ACHN renal, 43.3 µM; in the assay with IGROV1 ovarian, above 100 µM. Further, the TGI in the assay on SNB-75 CNS, in the assay on SN12C renal, in the assay on HCT-15 colon, in the assay on NCI-H226 lung, in the assay with COLO 205 colon and in the assay on SK-MEL-2 melanoma was above 100 µM each time. In addition, the TGI with NCI-H460 lung, with BT-549 breast, in the assay on ACHN renal and in the assay on IGROV1 ovarian was above 100 µM throughout.

As to `CCN1C(=O)c2ccc3c4c(ccc(c24)C1=O)C(=O)N(CCCNCc1ccccc1OC)C3=O`, the GI50 was 1.57 µM in the assay on SNB-75 CNS; 0.327 µM in the assay with SN12C renal; 0.291 µM in the assay on HCT-15 colon; 1.28 µM in the assay on NCI-H226 lung; 0.201 µM in the assay on COLO 205 colon; 1.55 µM in the assay on SK-MEL-2 melanoma. The GI50 with NCI-H460 lung is 0.437 µM; with BT-549 breast it was 1.48 µM; in the assay on ACHN renal, 0.553 µM; with IGROV1 ovarian it was 1.28 µM. For the same molecule, the TGI stood at 3.01 µM with SNB-75 CNS; 1.32 µM with SN12C renal; 1.07 µM in the assay on HCT-15 colon; 2.77 µM in the assay on NCI-H226 lung; 0.382 µM in the assay on COLO 205 colon; 3.48 µM in the assay with SK-MEL-2 melanoma. Also, the TGI came out at 2.09 µM in the assay with NCI-H460 lung, 2.94 µM in the assay with BT-549 breast, 4.63 µM in the assay with ACHN renal and 4.37 µM with IGROV1 ovarian.

For `CN(c1ccc(NC(=O)Nc2c(Cl)cccc2Cl)cc1)c1ccnc(Nc2cccc(CS(C)(=O)=O)c2)n1`, the GI50 was 1.69 µM with SNB-75 CNS; 3.37 µM in the assay with SN12C renal; 5.6 µM in the assay on HCT-15 colon; 4.67 µM with NCI-H226 lung; 0.16 µM in the assay with COLO 205 colon; 5 µM in the assay on SK-MEL-2 melanoma. Moreover, the GI50 in the assay on NCI-H460 lung was 0.505 µM; with BT-549 breast it was 3.3 µM; in the assay with ACHN renal, 3.48 µM; with IGROV1 ovarian, 4.57 µM. Besides, the TGI with SNB-75 CNS was 7 µM; in the assay with SN12C renal, 10.6 µM; in the assay on HCT-15 colon it was above 25 µM; in the assay on NCI-H226 lung, above 20.2 µM; in the assay on COLO 205 colon, 11.9 µM; with SK-MEL-2 melanoma, 11.9 µM. Besides, the TGI in the assay with NCI-H460 lung was 11.6 µM; with BT-549 breast it was 8.15 µM; with ACHN renal it was 8.79 µM; in the assay on IGROV1 ovarian it was above 17 µM.

Turning to `COc1cc(Nc2ncccc2C(=O)Nc2nc3ccc(F)cc3s2)cc(OC)c1OC`, the GI50 with SNB-75 CNS is 4.48 µM; in the assay on SN12C renal, 4.73 µM; in the assay on HCT-15 colon, 4.38 µM; with NCI-H226 lung, 2.95 µM; in the assay with COLO 205 colon, 3.04 µM; in the assay with SK-MEL-2 melanoma, 2.34 µM. Also, the GI50 was 3.3 µM in the assay on NCI-H460 lung, 2.63 µM in the assay on BT-549 breast, 4.82 µM in the assay with ACHN renal and 1.77 µM in the assay with IGROV1 ovarian. Also, the TGI with SNB-75 CNS was above 100 µM; in the assay on SN12C renal, above 100 µM; with HCT-15 colon, above 100 µM; in the assay with NCI-H226 lung, above 100 µM; with COLO 205 colon, above 100 µM; in the assay with SK-MEL-2 melanoma it was 8.04 µM. Besides, the TGI with NCI-H460 lung is above 100 µM; with BT-549 breast, above 100 µM; with ACHN renal, above 100 µM; in the assay on IGROV1 ovarian it was 6.89 µM.
